Some test systems named below: SK-OV-3 ovarian; UACC-257 melanoma; UACC-62 melanoma; SNB-19 CNS; A498 renal; A549 NSCLC; NCI-H522 lung; HOP-92 NSCLC; SK-MEL-28 melanoma; HCT-116 colon.
Assay in all cases: growth of human tumour cells (NCI), 48 h

Several values for one entry are separate records, joined by “and”; a condition that tells them apart may be missing. Equal entries are not always repeated.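 Values below derive from 48-hour exposures of cells grown in 96-well plates, with endpoints linearly interpolated between the two concentrations bracketing the appropriate inhibition level. GI50 = concentration required for 50% inhibition of growth. Definition used: TGI = concentration required for complete inhibition of growth.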

On to `Clc1ccccc1[C@@H]1C[C@@H]2Cc3cc(Br)c4ccccc4c3N1O2`, for which the GI50 is 3.79 µM in the experiment on SK-OV-3 ovarian; 3.77 µM in the experiment on UACC-257 melanoma; 4.29 µM with UACC-62 melanoma; 8.11 µM in the experiment on SNB-19 CNS; 3.79 µM in the experiment with A498 renal; 4.91 µM with A549 NSCLC. The GI50 with NCI-H522 lung is 2.31 µM; with HOP-92 NSCLC it was 3.07 µM; in the experiment with SK-MEL-28 melanoma, 6.92 µM; with HCT-116 colon, 4.1 µM. Besides, the TGI is more than 100 µM in the experiment with SK-OV-3 ovarian; more than 100 µM in the experiment on UACC-257 melanoma; more than 100 µM in the experiment on UACC-62 melanoma; more than 100 µM with SNB-19 CNS; 60.2 µM in the experiment on A498 renal; more than 100 µM in the experiment on A549 NSCLC. The TGI is 6.51 µM in the experiment with NCI-H522 lung, 35.6 µM in the experiment on HOP-92 NSCLC, more than 100 µM in the experiment with SK-MEL-28 melanoma and more than 100 µM with HCT-116 colon.

Regarding `CC(N)Cc1ccc(Cl)cc1` (stereo unspecified), the TGI in the experiment on SK-OV-3 ovarian, in the experiment with UACC-257 melanoma, with UACC-62 melanoma, with SNB-19 CNS, in the experiment on A498 renal and with A549 NSCLC was more than 100 µM in each case. Besides, the TGI in the experiment on NCI-H522 lung, in the experiment with HOP-92 NSCLC, in the experiment with SK-MEL-28 melanoma and with HCT-116 colon was more than 100 µM each time.

`CCN(CC)CCC(=O)OC1C(C)=CC(C)C(=O)CC(C(C)CC2CCC(O)C(OC)C2)OC(=O)C2CCCCN2C(=O)C(=O)[C@@]2(O)OC(CCC2C)CC(OC)\C(C)=C/C=C/C=C/C(C)CC(C)C(=O)C1OC` (stereo partly specified): the TGI in the experiment on SK-OV-3 ovarian came to 19.4 µM; with UACC-257 melanoma, 27.1 µM; in the experiment with UACC-62 melanoma, 19.8 µM; in the experiment on SNB-19 CNS, 21.6 µM; in the experiment on A498 renal it was 17.6 µM; with A549 NSCLC it was 16.6 µM. The TGI in the experiment with NCI-H522 lung was 26.5 µM; in the experiment on HOP-92 NSCLC it was 21.9 µM; in the experiment on SK-MEL-28 melanoma, 19.3 µM; with HCT-116 colon, 20.1 µM.

With `CCn1c(-c2c(Cl)cc(O)cc2Cl)cc2c(Cl)cc(O)cc21`, the TGI was determined as 37.1 µM with SK-OV-3 ovarian; 26 µM in the experiment on UACC-257 melanoma; 32.8 µM in the experiment with UACC-62 melanoma; 28.3 µM in the experiment on SNB-19 CNS; 30.1 µM in the experiment on A498 renal; 44.2 µM with A549 NSCLC. Also, the TGI was 6.68 µM in the experiment on NCI-H522 lung, 59.4 µM with HOP-92 NSCLC, 10.1 µM in the experiment with SK-MEL-28 melanoma and more than 100 µM with HCT-116 colon.

With `CN(C)c1ccc(C(=N)c2ccc(N(C)C)cc2)cc1`, the GI50 in the experiment on SK-OV-3 ovarian was 3.55 µM and 2.92 µM; with UACC-257 melanoma, 6.56 µM and 4.76 µM; with UACC-62 melanoma, 3.24 µM and 5.32 µM; in the experiment with SNB-19 CNS, 4.38 µM and 16 µM; in the experiment on A549 NSCLC it was 5.1 µM and 3.95 µM; in the experiment with NCI-H522 lung it was 0.503 µM and 1.16 µM. The GI50 with HOP-92 NSCLC is 0.942 µM and 1.52 µM; in the experiment on SK-MEL-28 melanoma, 4.82 µM and 3.26 µM; in the experiment on HCT-116 colon it was 2.41 µM and 3.46 µM. Moreover, the TGI in the experiment with SK-OV-3 ovarian was 16.6 µM and 22.3 µM; in the experiment on UACC-257 melanoma, 30.8 µM and 32.6 µM; with UACC-62 melanoma it was 17.6 µM and 23.9 µM; with SNB-19 CNS, more than 100 µM; in the experiment with A498 renal, 7.45 µM and 4.58 µM; in the experiment on A549 NSCLC, 36.7 µM and > 100 µM. In addition, the TGI was 5.01 µM and 9.45 µM with NCI-H522 lung; 6.24 µM and 8.69 µM in the experiment with HOP-92 NSCLC; 48.8 µM and 27.5 µM in the experiment on SK-MEL-28 melanoma; 14.2 µM and 41 µM in the experiment on HCT-116 colon.

For the compound `COc1cc(OC)c(/C=C/C(=O)c2ccc(Nc3ncnc4ccccc34)cc2)c(OC)c1`, the GI50 with SK-OV-3 ovarian is 1.02 µM; in the experiment with UACC-257 melanoma, 1.24 µM; with UACC-62 melanoma, 0.599 µM; in the experiment on SNB-19 CNS it was 1.23 µM; in the experiment with A498 renal it was 0.282 µM; with A549 NSCLC it was 0.665 µM. The GI50 was 0.296 µM in the experiment on NCI-H522 lung, 1.08 µM in the experiment on HOP-92 NSCLC, 0.94 µM in the experiment on SK-MEL-28 melanoma and 0.45 µM in the experiment with HCT-116 colon. Moreover, the TGI in the experiment on SK-OV-3 ovarian came out at 2.74 µM; in the experiment with UACC-257 melanoma, 3.89 µM; with UACC-62 melanoma it was 2.18 µM; with SNB-19 CNS, 14.5 µM; in the experiment on A498 renal, 2.13 µM; in the experiment with A549 NSCLC, 3.76 µM. The TGI came out at 1.44 µM in the experiment with NCI-H522 lung, 3.89 µM in the experiment with HOP-92 NSCLC, 3.03 µM in the experiment with SK-MEL-28 melanoma and 2.04 µM in the experiment with HCT-116 colon.

As to `O=C1NC(=O)[C@@]2(CC[C@@H](O)C2)c2ccncc21`, the TGI in the experiment on SK-OV-3 ovarian, with UACC-257 melanoma, in the experiment with UACC-62 melanoma, in the experiment on SNB-19 CNS, in the experiment on A498 renal and in the experiment with A549 NSCLC was more than 100 µM in each case. Moreover, the TGI in the experiment with NCI-H522 lung, in the experiment on HOP-92 NSCLC, with SK-MEL-28 melanoma and in the experiment with HCT-116 colon was more than 100 µM throughout.

As to `O=C1C=C2C=CC3CC2(O1)C1CCCCN31` (stereo unspecified), the TGI in the experiment on SK-OV-3 ovarian was > 100 µM and 58 µM and 90.6 µM; in the experiment on UACC-257 melanoma, > 100 µM and 66.7 µM; with UACC-62 melanoma, 42.3 µM and 30.1 µM and > 100 µM; in the experiment with SNB-19 CNS, > 100 µM and 55.5 µM; in the experiment on A498 renal it was 43.9 µM and 91.5 µM and > 100 µM; with A549 NSCLC, > 100 µM and 63.4 µM. Further, the TGI with NCI-H522 lung was 28.1 µM and 32.4 µM and > 100 µM; in the experiment with HOP-92 NSCLC it was 65.8 µM and 48.3 µM and 66 µM; with SK-MEL-28 melanoma it was 39 µM and 36.4 µM and > 100 µM; in the experiment with HCT-116 colon, 30.3 µM and 26.6 µM and > 100 µM. In addition, the GI50 in the experiment with UACC-257 melanoma is 25 µM and 13.8 µM and 86.8 µM; with UACC-62 melanoma, 15.8 µM and 13.9 µM and 57.1 µM; with A498 renal, 10.3 µM and 28.4 µM and 48.9 µM; in the experiment on A549 NSCLC it was 31.8 µM and 22.9 µM and 64.4 µM; in the experiment on NCI-H522 lung, 10.1 µM and 11.1 µM and 32.8 µM; in the experiment on SK-MEL-28 melanoma it was 17.3 µM and 13.4 µM and 89.3 µM. The GI50 with HCT-116 colon is 14.2 µM and 12.5 µM and 36.5 µM.

With `O=C(O)C(Br)C(Br)C(=O)O` (stereo unspecified), the TGI with SK-OV-3 ovarian, in the experiment with UACC-257 melanoma, with UACC-62 melanoma, in the experiment on SNB-19 CNS, in the experiment on A498 renal and in the experiment with A549 NSCLC was more than 100 µM in each case. For the same compound, the TGI in the experiment with NCI-H522 lung, in the experiment on HOP-92 NSCLC, in the experiment on SK-MEL-28 melanoma and with HCT-116 colon was more than 100 µM each time.

With `O=C1NC(O)c2ccccc2O1` (stereo unspecified), the TGI with SK-OV-3 ovarian, with UACC-257 melanoma, in the experiment on UACC-62 melanoma, with SNB-19 CNS, in the experiment on A498 renal and with A549 NSCLC was more than 100 µM throughout. The TGI with NCI-H522 lung, with HOP-92 NSCLC, in the experiment on SK-MEL-28 melanoma and in the experiment on HCT-116 colon was more than 100 µM throughout.
